# Data: ChEMBL document CHEMBL1148515, “Enantiomerically pure 1,4-benzodiazepine-2,5-diones as Hdm2 antagonists” (Bioorg Med Chem Lett, 2006)
# Legend:
# Format in all cases: functional
# [1] = test system: JAR; experiment: Increase in caspase3/7 production in human JAR cells at 50 uM relative to control
# [2] = test system: JAR; experiment: Increase in caspase3/7 production in human JAR cells at 10 uM relative to control
# [3] = test system: JAR; experiment: Increase in caspase3/7 production in human JAR cells at 25 uM relative to control
SMILES,Activity [1],Activity [2],Activity [3]
C[C@H](c1ccc(Cl)cc1)N1C(=O)c2cc(I)ccc2N(CCCCC(=O)O)C(=O)[C@@H]1c1ccc(Cl)cc1,1.97,0.97,1.37
COCCOCCN1C(=O)[C@H](c2ccc(Cl)cc2)N([C@H](C)c2ccc(Cl)cc2N)C(=O)c2cc(I)ccc21,2.92,1.29,2.84
C[C@H](c1ccc(Cl)cc1N)N1C(=O)c2cc(I)ccc2N(CCN2CCOCC2)C(=O)[C@@H]1c1ccc(Cl)cc1,2.89,0.9,2.87
